Data as given in patent publication US20050232891A1, “Methods of treating skin with diphosphonate derivatives” (ILEX Products Inc., priority 2001, published 2005).
Read-outs that look alike come from different tables or passages of the source.

Columns and labels:
[1] = Percutaneous absorption of Apomine: plasma level after topical application; assay type: in vivo, female Swiss nude (nu/nu) mice; conditions: female, Swiss nude (nu/nu), mouse, three hours after the last application
Procedure: Plasma concentrations of Apomine are measured with a Hewlett Packard gas chromatograph using a nitrogen phosphorus detector and HP-5 15 m×0.32 mm column. Alberts et al., 2001). Apomine is extracted from plasma with methyl t-butyl ether (MTBE). To 250 μl of plasma sample, 10 μl of a methanolic solution of the internal standard (n-propyl phoposhonate analog of Apomine) at a final concentration of 4 μg/ml are added and mixed by vortexing. The compound and internal standard are extracted with 500 μl MTBE and 30 sec vigorous shaking. The organic layer obtained by centrifugation (5 min at 13,000 rpm) is dried under nitrogen and reconstituted in 250 μl MTBE of which 2 μl is injected with an autoampler for analysis. A calibration curve is established with plasma from untreated mice spiked with different concentrations of Apomine. The calibration curve is used to interpolate the concentrations of Apomine in the samples using the peak area ratio values.
Apomine (1 mg) was topically applied to five to six week old female Swiss nude (nu/nu) mice by application of 20 μl of a 50 mg/ml solution of Apomine in acetone. Treatment was continued daily for 24 days. Three hours after the last application the mice were sacrificed and plasma Apomine levels were measured. The plasma concentration was 1.12±0.10 μg/ml plasma (n=6), which is 2 μM Apomine. […]

HepG2 cells = assay: Stimulation of collagen expression (cDNA microarray), Apomine treated versus control HepG2 cells; assay type: cell-based, human; conditions: gene expression; for fold induction at 1 µM: Homo sapiens, HepG2, 1 μM Apomine vs ethanol vehicle control
Procedure: HepG2 cells were grown in Dulbecco's modified Eagle medium (DMEM) supplemented with 10% FBS. Cells were harvested when they were about 80-90% confluent and were directly subjected to RNA isolation. Treated cells were incubated with 1 μM Apomine and control cells were incubated with a volume of ethanol used as vehicle for the Apomine.
DNA microarray slides used in this study were fabricated in the microarray core facilities at the Arizona Cancer Center (Calaluce et al., 2001). Each slide has 5760 spots divided into 4 blocks. Each block contains the same 8 ice plant genes from Mesembryanthemum crystallinum and 23 different housekeeping genes as references for data normalization. Overall, each slide has 5289 unique human cDNA sequences.
Poly(A)^+ RNA was directly isolated from cell pellets using the FastTrack 2.0 Kit (Invitrogen, Carsbad, Calif.) following the instruction manual provided by the manufacturer. Each RNA sample was inspected by denaturing agarose gel electrophoresis to ensure the quality of the preparation. Labeling and purification of cDNA probes were carried out using the MICROMAX direct cDNA microarray system (NEN Life Science Products, Boston, Mass.). Two to four micrograms of the poly(A)+ RNA samples were used for each labeling. Probes for Apomine treated HepG2 cells were labeled with Cyanine 5 (Cy5) and probes for HeLa cell was labeled with Cyanine 3 (Cy3). For investigation of control Hep2G cells, these cells were labeled with Cy3 and probes for HeLa cells were labeled with Cy5. Purified cDNA probes were dried and dissolved in 15 μL of Hybridization Buffer (included in the MICROMAX direct cDNA microarray system kit). The probes were then denatured by heating at 95° C. for 2 min and applied to the array area of a pre-denatured microarray slide. The microarray slide was covered with a […] slide cover slip and incubated in a HybChamber (GeneMachines, San Carlos, Calif.) at 62° C. for overnight. On the second day, the slide was washed in 0.5×SSC, 0.01% SDS for 5 min, 0.06×SSC, 0.01% SDS for 5 min, and 0.06×SCC for 2 min. Finally, the slide was dried by spinning at 500 g for 1 min and scanned in a dual-laser (635 nm for red fluorescent Cy5 and 532 nM for green fluorescent Cy3) microarray scanner (GenePix 4000, Axon Instruments, Foster City, Calif.).
Fluorescence intensities for both dyes (Cy3 and Cy5) and local background subtracted values for individual spots were obtained using the GenePix 4000 microarray scanner and accompanying software (Axon Instruments, Foster City, Calif.). The data were imported into Microsoft Excel spreadsheets for analysis. Defective spots, i.e., ones that are sub-standard on the scanned image or have negative background subtracted values, were first filtered. To minimize the effects of measurement variations introduced by artificial sources during experiments, only spots that had significant signals in both channels were included. The determination of this significance is based on signal intensities of non-homologous ice plant genes. Generally, if the signal intensity of a spot is less than the average of ice plant spots, the signal was considered as non-significant. In this analysis the significance cutoff for signal to background ratio as 1.4 was determined empirically. Thus, a spot was excluded in further analysis if it has a signal to background ratio less than 1.4 in both channels. For each spot, the median of ratios (the median of the pixel-by-pixel ratios of pixel intensities that have the median background intensity subtracted) was used in subsequent analysis. Spots representing housekeeping genes were used to normalize the entire slide so that all slides can be compared directly. For each pancreatic cell line, at least two hybridizations were carried out. The average of median ratios from replicates was calculated for each spot. […]

[2] = patients, 75 mg/m^2 twice a day orally for 14 days; cited from earlier work

Structure (SMILES): CC(C)OP(=O)(OC(C)C)C(Cc1cc(C(C)(C)C)c(O)c(C(C)(C)C)c1)P(=O)(OC(C)C)OC(C)C [Apomine, tetraisopropyl 2-(3,5-di-tert-butyl-4-hydroxyphenyl)-ethylidene-1,1-diphosphonate]
- concentration at 3 h ([1]; 1 mg topically (20 μl of 50 mg/ml in acetone) daily for 24 days, n=6): 1120 ± 100 ng/mL
- concentration at 3 h ([1]; 1 mg topically daily for 24 days): 2000 nM
- Fold induction, Procollagen, type III (HepG2 cells; 1 μM Apomine vs ethanol vehicle control): 6.49 fold
- fold induction at 1 µM (HepG2 cells; read-out: Fold induction, Collagen, type I, alpha 2): 1.65
- fold induction at 1 µM (HepG2 cells; read-out: Fold induction, Collagen, type II, alpha 1): 5.5
- fold induction at 1 µM (HepG2 cells; read-out: Fold induction, Collagen, type IV, alpha 4): 1.7
- fold induction at 1 µM (HepG2 cells; read-out: Fold induction, Collagen, type IX, alpha 3): 1.4
- fold induction at 1 µM (HepG2 cells; read-out: Fold induction, Collagen, type V, alpha 1): 1.42
- fold induction at 1 µM (HepG2 cells; read-out: Fold induction, Collagen, type VI, alpha 2): 2.4
- fold induction at 1 µM (HepG2 cells; read-out: Fold induction, Collagen, type VI, alpha 3): 1.16
- fold induction at 1 µM (HepG2 cells; read-out: Fold induction, Collagen, type XI, alpha 1): 2.66
- fold induction at 1 µM (HepG2 cells; read-out: Fold induction, Procollagen, type III): > 6
- adverse effects [2]: no adverse effects
